This is an account of results in US9918470B2, “Pesticidal mixtures” (Syngenta Participations AG, priority 2011, dated 2018).

The subject of experiment [1] is Heliothis virescens (Tobacco Budworm). Briefly: Heliothis virescens (Tobacco Budworm): eggs on artificial diet in 24-well plate, larval mortality after 4 days. It is filed as in vivo. The protocol:
Heliothis virescens (Tobacco Budworm)
Eggs (0-24 h old) are placed in 24-well microtiter plate on artificial diet and treated with test solutions (DMSO) by pipetting. After an incubation period of 4 days, samples are checked for larval mortality.
(§1) Columns 4 and 5 show the control observed from the compounds alone. […] When a compound applied alone gave no control at a particular rate, it is assumed that lower rates of that compound alone also give no control. DMET=deltamethrin, SPAT=spirotetramat, IMID=imidacloprid, B15=compound 15 in Table B.

The test system of experiment [2] is Tetranychus urticae (Two-Spotted Spider Mite). Briefly: Tetranychus urticae (Two-Spotted Spider Mite): sprayed bean leaf discs, mobile stages mortality after 8 days. It is filed as in vivo.
Text: Tetranychus urticae (Two-Spotted Spider Mite)
Bean leaf discs on agar in 24-well microtiter plates are sprayed with test solutions (DMSO). After drying, the leaf discs are infested with mite populations of mixed ages. 8 days later, discs are checked for mobile stages (I removed “mixed population”) mortality.
as §1

With `CC(NC(=O)C1CC1)c1ccc(N2CCC(c3cc(C(F)(F)F)cc(C(F)(F)F)c3)(C(F)(F)F)C2)cc1` (mixture of isomers) [Compound B15], the “B15 observed control %” value in experiment [1] (B15 alone 0.05 ppm (Table 2)) turned out to be 0%; in experiment [1] (B15 alone 0.1 ppm (Table 1)) it was 55%; in experiment [1] (B15 alone 0.1 ppm (Table 2)), 0%; in experiment [1] (B15 alone 0.2 ppm (Table 1)), 75%; in experiment [1] (B15 alone 0.2 ppm (Table 2)), 85%; in experiment [1] (B15 alone 0.4 ppm (Table 1)), 75%. The “B15 observed control %” value amounted to 90% in experiment [1] (B15 alone 0.4 ppm (Table 2)); 85% in experiment [1] (B15 alone 0.8 ppm (Table 1)); 90% in experiment [1] (B15 alone 0.8 ppm (Table 2)); 95% in experiment [1] (B15 alone 1.6 ppm (Table 1)); 0% in experiment [2] (B15 alone 0.187 ppm); 0% in experiment [2] (B15 alone 0.375 ppm). Moreover, the “B15 observed control %” value was determined as 0% in experiment [2] (B15 alone 0.75 ppm) and 30% in experiment [2] (B15 alone 1.5 ppm).

`CC1(C)[C@H](C(=O)O[C@H](C#N)c2cccc(Oc3ccccc3)c2)[C@@H]1C=C(Br)Br` [DMET, deltamethrin]: the “DMET observed control %” value in experiment [1] (DMET alone 0.0062 ppm), in experiment [1] (DMET alone 0.0125 ppm), in experiment [1] (DMET alone 0.025 ppm), in experiment [1] (DMET alone 0.05 ppm), in experiment [1] (DMET alone 0.1 ppm) and in experiment [1] (DMET alone 0.2 ppm) was 0% each time. Further, the “DMET observed control %” value in experiment [1] (DMET alone 0.4 ppm) and in experiment [1] (DMET alone 0.8 ppm) was 0% throughout.

Take `O=[N+]([O-])NC1=NCCN1Cc1ccc(Cl)nc1` [IMID, imidacloprid]: the “IMID observed control %” value in experiment [2] (IMID alone 12.5 ppm), in experiment [2] (IMID alone 25 ppm), in experiment [2] (IMID alone 50 ppm), in experiment [2] (IMID alone 100 ppm), in experiment [2] (IMID alone 200 ppm) and in experiment [2] (IMID alone 400 ppm) was 0% in each case.

Turning to `CCOC(=O)OC1=C(c2cc(C)ccc2C)C(=O)N[C@]12CC[C@@H](OC)CC2` [SPAT, spirotetramat], the “SPAT observed control %” value was 0% in experiment [1] (SPAT alone 6.25 ppm); 0% in experiment [1] (SPAT alone 12.5 ppm); 0% in experiment [1] (SPAT alone 25 ppm); 0% in experiment [1] (SPAT alone 50 ppm); 0% in experiment [1] (SPAT alone 100 ppm); 55% in experiment [1] (SPAT alone 200 ppm).
